Test systems include P388/ADR leukemia; BT-549 breast; LXFL 529 NSCLC; MDA-MB-231 breast.
Common to all, as to assay: NCI tumour cell line growth inhibition, 48 h

SMILES strings stand for the structures.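 Values below derive from 48-hour exposures of cells grown in 96-well plates, with endpoints linearly interpolated between the two concentrations bracketing the appropriate inhibition level. GI50 is the concentration that inhibits growth by half. TGI marks complete inhibition of growth.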

In the experiment on P388/ADR leukemia, `O=CNc1cccc2c3c([nH]c12)CCCCCC3` gave a TGI of over 100 µM.
Consider `CCCCc1ccc2[n+](c1)C(C(=O)OCC)=PC2` (stereo not given), for which the TGI with BT-549 breast is over 100 µM.
`Cc1cc(NS(=O)(=O)c2ccc(Nc3c4ccccc4nc4c(C(=O)NCCN(C)C)ccc(Cl)c34)cc2)no1`: in the experiment on LXFL 529 NSCLC, the TGI came out at 19.2 µM.
On the same count and under the same terms, the value for `COc1ccc(C(=O)Cc2cc(OC)ccc2OC)cc1` was over 100 µM.
In turn, `C=C1C(=O)O[C@H]2C1[C@H](OC(=O)/C(C)=C\COC(C)=O)C[C@]1(CO1)[C@@H]1[C@H](O)[C@H]3O[C@@]3(C)[C@@H]12` (stereo not given in full) had a TGI in the experiment with P388/ADR leukemia of 30 µM.
As for `O=C1c2ccccc2-c2ccc(NC(=O)C3CCCCC3C(=O)O)cc21` (stereo not given), the TGI with BT-549 breast and in the experiment on MDA-MB-231 breast was over 100 µM each time.
Turning to `COC(=O)C(C)N1C(=O)c2ccccc2I1OC(C)=O` (stereo not given), in the experiment on MDA-MB-231 breast, the GI50 is 25.4 µM and the TGI was over 100 µM.
Take `CC(C)=CCN(N=O)c1ncnc2nc[nH]c12`: the TGI in the experiment with MDA-MB-231 breast was over 100 µM.

The values are drawn from PubChem BioAssay (NCI).
